Results reported in PubChem BioAssay (NCI).
Where “and” joins values, the source holds several entries; their conditions need not be identical. Equal entries are not always repeated.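 Growth conditions: 96-well plates. Treatment: test compound, 48 hours, 5 concentrations. Analysis: linear interpolation between bracketing concentrations; unreached endpoints set to highest concentration. Here, GI50 denotes the concentration required for 50% inhibition of growth. Definition used: TGI = concentration required for complete inhibition of growth.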

How the values were obtained:
Test in all cases: NCI tumour cell line growth inhibition, 48 h
SK-MEL-5 melanoma = system: SK-MEL-5 melanoma
A498 renal = system: A498 renal
UACC-62 melanoma = system: UACC-62 melanoma
786-0 renal = system: 786-0 renal
SN12C renal = system: SN12C renal
CAKI-1 renal = system: CAKI-1 renal
PC-3 prostate = system: PC-3 prostate
M14 melanoma = system: M14 melanoma
TK-10 renal = system: TK-10 renal
HS 578T breast = system: HS 578T breast
SNB-19 CNS = system: SNB-19 CNS
SNB-75 CNS = system: SNB-75 CNS
NCI-H226 lung = system: NCI-H226 lung
U251 CNS = system: U251 CNS
LOX IMVI melanoma = system: LOX IMVI melanoma
HT29 colon = system: HT29 colon
SF-295 CNS = system: SF-295 CNS
COLO 205 colon = system: COLO 205 colon
HOP-92 NSCLC = system: HOP-92 NSCLC

Compound	TGI (SK-MEL-5 melanoma)	TGI (A498 renal)	TGI (UACC-62 melanoma)	TGI (786-0 renal)	TGI (SN12C renal)	TGI (CAKI-1 renal)	TGI (PC-3 prostate)	TGI (M14 melanoma)	TGI (TK-10 renal)	TGI (HS 578T breast)	TGI (SNB-19 CNS)	TGI (SNB-75 CNS)	TGI (NCI-H226 lung)	TGI (U251 CNS)	TGI (LOX IMVI melanoma)	TGI (HT29 colon)	TGI (SF-295 CNS)	TGI (COLO 205 colon)	TGI (HOP-92 NSCLC)	GI50 (HS 578T breast)
C=C(Br)CN(CC(=C)Br)C(C)=O	> 100 µM	> 100 µM	> 100 µM	> 100 µM	> 100 µM	> 100 µM	> 100 µM	> 100 µM	> 100 µM	> 100 µM	> 100 µM	> 100 µM	> 100 µM	> 100 µM	> 100 µM	> 100 µM	> 100 µM	> 100 µM	–	–
Cc1cc(NS(=O)(=O)c2ccc(Nc3c4ccccc4nc4ccc(C(=O)Nc5ccc(S(=O)(=O)N=C(N)N)cc5)cc34)cc2)no1	> 100 µM	–	> 100 µM	> 100 µM	> 100 µM	> 100 µM	> 100 µM	> 100 µM	> 100 µM	> 100 µM	> 100 µM	> 100 µM	> 100 µM	> 100 µM	> 100 µM	> 100 µM	> 100 µM	> 100 µM	> 100 µM	–
CCN1C(=O)C(=Cc2ccc(-c3ccccc3)cc2)C(=O)N(CC)C1=S	> 100 µM	–	> 100 µM	> 100 µM	> 100 µM	> 100 µM	> 100 µM	> 100 µM	> 100 µM	> 100 µM	> 100 µM	> 100 µM	> 100 µM	> 100 µM	> 100 µM	> 100 µM	> 100 µM	> 100 µM	> 100 µM	–
O=C1C(N=Nc2ccc(-c3nc4ccccc4o3)cc2)NC(=S)N1c1ccccc1 (stereo unspecified)	> 100 µM	–	> 100 µM	> 100 µM	> 100 µM	> 100 µM	> 100 µM	> 100 µM	> 100 µM	> 100 µM	> 100 µM	> 100 µM	> 100 µM	> 100 µM	> 100 µM	> 100 µM	> 100 µM	> 100 µM	> 100 µM	–
COC1OC(COC(=O)NCCCCC(=O)C(F)(F)F)C(O)C(O)C1O (stereo unspecified)	> 100 µM	–	> 100 µM	> 100 µM	> 100 µM	> 100 µM	> 100 µM	> 100 µM	> 100 µM	> 100 µM	> 100 µM	> 100 µM	–	> 100 µM	> 100 µM	> 100 µM	> 100 µM	> 100 µM	> 100 µM	–
CCOC(=O)N1CCN(C(=O)Nc2cccc3ccccc23)CC1	> 10 µM	> 10 µM	> 10 µM	–	> 10 µM	> 10 µM	> 10 µM	> 10 µM	> 10 µM	> 10 µM	> 10 µM	> 10 µM	> 10 µM	> 10 µM	> 10 µM	> 10 µM	> 10 µM	> 10 µM	–	–
c1ccc2c(c1)CCN2CCc1c[nH]c2ccccc12	> 10 µM	–	> 10 µM	> 10 µM	> 10 µM	> 10 µM	> 10 µM	> 10 µM	> 10 µM	> 10 µM	> 10 µM	> 10 µM	> 10 µM	> 10 µM	> 10 µM	> 10 µM	> 10 µM	> 10 µM	> 10 µM	–
COc1ccc(NCC(=O)Nn2c(C)nc3ccc(S(=O)(=O)Nc4ccc(OC)cc4)cc3c2=O)cc1	–	–	> 100 µM	> 100 µM	> 100 µM	> 100 µM	> 100 µM	> 100 µM	> 100 µM	> 100 µM	> 100 µM	> 100 µM	> 100 µM	> 100 µM	> 100 µM	> 100 µM	> 100 µM	> 100 µM	> 100 µM	–
CCOC(=O)C(NC(=O)NC(C(=O)OCC)C(=O)OCC)C(=O)OCC	> 100 µM	–	> 100 µM	> 100 µM	> 100 µM	> 100 µM	> 100 µM	> 100 µM	> 100 µM	> 100 µM	> 100 µM	–	> 100 µM	> 100 µM	–	> 100 µM	> 100 µM	–	> 100 µM	–
O=[N+]([O-])/C(C(Cl)=C(Cl)Cl)=C1/OCCS1	34 µM	36.8 µM	61.9 µM	38.6 µM	43.8 µM	72.7 µM	> 100 µM	> 100 µM	66.4 µM	87.6 µM	> 100 µM	50.6 µM	56.1 µM	> 100 µM	41.8 µM	> 100 µM	90.5 µM	36.8 µM	–	–
COc1ccc(-c2c(C#N)c(S)n(C3OC(CO)C(O)C(O)C3O)c(=O)c2C#N)cc1 (stereo unspecified)	> 100 µM	> 100 µM	> 100 µM	> 100 µM	> 100 µM	> 100 µM	> 100 µM	> 100 µM	> 100 µM	> 100 µM	> 100 µM	> 100 µM	> 100 µM	–	> 100 µM	> 100 µM	> 100 µM	–	–	37.3 µM and > 100 µM
